Tests used:
[1] = target: Alpha-1 receptor (rat brain cortical membrane preparation); experiment: Alpha-1 receptor binding ([3H]-prasosin); conditions: rat brain cortical membranes, [3H]-prasosin 0.5 nM; read-out: Alfa-1 IC-50
[2] = target: T1, rat recombinant D3 receptors (expressed in Sf9 cells) (Rattus norvegicus, UniProt P19020); experiment: D3 receptor binding ([3H]-spiperone); conditions: [3H]-spiperone 0.85 nM, read-out: D3 IC-50
T1 construct: purchased Packard BioScience, BioSignal Packard Inc. 6110139; host or cells: Sf9 cells

[3] = target: T2, D2 receptor (rat brain striatal membrane preparation) (Rattus norvegicus, UniProt P61169); experiment: D2 receptor binding ([3H]-spiperone); conditions: rat brain striatal membranes, [3H]-spiperone 0.6 nM; read-out: D2 IC-50
T2 construct: on rat brain striatal membrane preparation; from tissue; host or cells: rat brain striatum membranes
T2 sequence (P61169 whole entry): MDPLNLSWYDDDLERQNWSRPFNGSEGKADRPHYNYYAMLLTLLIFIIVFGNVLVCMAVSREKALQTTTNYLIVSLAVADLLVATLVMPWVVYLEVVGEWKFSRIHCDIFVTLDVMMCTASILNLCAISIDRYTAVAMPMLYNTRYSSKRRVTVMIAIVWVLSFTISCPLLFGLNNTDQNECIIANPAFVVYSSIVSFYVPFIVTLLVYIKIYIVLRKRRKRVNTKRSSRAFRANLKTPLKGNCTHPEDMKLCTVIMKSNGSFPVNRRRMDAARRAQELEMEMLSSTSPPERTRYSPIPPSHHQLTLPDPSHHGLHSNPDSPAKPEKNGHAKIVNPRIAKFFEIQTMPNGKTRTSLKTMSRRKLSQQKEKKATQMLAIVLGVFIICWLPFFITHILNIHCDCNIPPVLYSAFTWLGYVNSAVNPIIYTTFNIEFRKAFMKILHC

T1 sequence (P19020 whole entry): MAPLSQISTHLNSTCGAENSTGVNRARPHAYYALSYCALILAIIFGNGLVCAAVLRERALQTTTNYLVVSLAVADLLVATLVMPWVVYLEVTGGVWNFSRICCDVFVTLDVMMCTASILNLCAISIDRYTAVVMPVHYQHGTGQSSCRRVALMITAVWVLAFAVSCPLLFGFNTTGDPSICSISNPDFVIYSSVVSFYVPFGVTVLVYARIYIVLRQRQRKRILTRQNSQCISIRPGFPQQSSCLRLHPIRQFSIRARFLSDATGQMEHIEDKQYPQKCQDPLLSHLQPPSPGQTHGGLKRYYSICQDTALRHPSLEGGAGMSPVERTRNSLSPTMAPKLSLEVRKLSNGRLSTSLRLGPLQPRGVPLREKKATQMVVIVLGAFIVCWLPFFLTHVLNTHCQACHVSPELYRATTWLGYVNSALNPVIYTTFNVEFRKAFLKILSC

| IC50 [1] [nM] | IC50 [2] [nM] | melting point [°C] | IC50 [3] [nM] | Structure (SMILES) |
| --- | --- | --- | --- | --- |
| > 200 | 1 to 10 |  |  | COC(=O)C(NC(=O)N[C@H]1CC[C@H](CCN2CCN(c3cccc(Cl)c3Cl)CC2)CC1)C(C)C (relative stereo) [Compound 29, trans-2-[3-(4-{2-[4-(2,3-Dichloro-phenyl)-piperazin-1-yl]-ethyl}-cyclohexyl)-ureido]-3-methyl-butyric acid methyl ester] |
| > 200 | < 1 | 235 to 238 |  | CCNC(=O)N[C@H]1CC[C@H](CCN2CCN(c3cccc(Cl)c3Cl)CC2)CC1 [Compound 2, Trans-1-{4-[2-[4-(2,3-dichlorophenyl)-piperazin-1-yl]-ethyl]-cyclohexyl}-3-ethyl-urea] |
| > 200 | < 1 | 218 to 220 | 10 to 50 | CCCNC(=O)N[C@H]1CC[C@H](CCN2CCN(c3cccc(Cl)c3Cl)CC2)CC1 [Compound 4, trans-1-{4-[2-[4-(2,3-dichlorophenyl)-piperazin-1-yl]-ethyl]-cyclohexyl}-3-propyl-urea] |
| > 200 | < 1 | 227 to 230 | 10 to 50 | CC(C)NC(=O)N[C@H]1CC[C@H](CCN2CCN(c3cccc(Cl)c3Cl)CC2)CC1 [Compound 5, trans-1-{4-[2-[4-(2,3-dichlorophenyl)-piperazin-1-yl]-ethyl]-cyclohexyl}-3-isopropyl-urea] |
| > 200 | < 1 | 115 to 118 | 10 to 50 | CCNC(=O)N[C@H]1CC[C@H](CCN2CCCN(c3cccc(Cl)c3Cl)CC2)CC1 [Compound 6, trans-1-{4-[2-[4-(2,3-dichlorophenyl)-hexahydro[1,4]diazepin-1-yl]-ethyl]-cyclohexyl}-3-ethyl-urea] |
| > 200 | 1 to 10 | 168 to 172 | 10 to 50 | CN(C)C(=O)N[C@H]1CC[C@H](CCN2CCCN(c3cccc(Cl)c3Cl)CC2)CC1 [Compound 7, trans-1-{4-[2-[4-(2,3-dichlorophenyl)-hexahydro[1,4]diazepin-1-yl]-ethyl]-cyclohexyl}-3,3-dimethyl-urea] |
| > 200 | < 1 | 201 to 203 | 10 to 50 | O=C(N[C@H]1CC[C@H](CCN2CCN(c3cccc(Cl)c3Cl)CC2)CC1)N1CCCC1 [Compound 8, trans-N-{4-[2-[4-(2,3-dichlorophenyl)-piperazin-1-yl]-ethyl]-cyclohexyl}-pyrrolidine-1-carboxamide] |
| > 200 | < 1 |  | 1 to 10 | O=C(N[C@H]1CC[C@H](CCN2CCCN(c3cccc(Cl)c3Cl)CC2)CC1)N1CCCC1 [Compound 9, trans-N-{4-[2-[4-(2,3-dichlorophenyl)-hexahydro[1,4]diazepin-1-yl]-ethyl]-cyclohexyl}-pyrrolidine-1-carboxamide] |
|  |  | 171 to 173 |  | CCN(CC)C(=O)N[C@H]1CC[C@H](CCN2CCN(c3cccc(Cl)c3Cl)CC2)CC1 [Compound 10, trans-1-{4-[2-[4-(2,3-dichlorophenyl)-piperazin-1-yl]-ethyl]-cyclohexyl}-3,3-diethyl-urea] |
|  |  | 195 to 198 |  | CCN(C)C(=O)N[C@H]1CC[C@H](CCN2CCN(c3cccc(Cl)c3Cl)CC2)CC1 [Compound 11, trans-1-{4-[2-[4-(2,3-dichlorophenyl)-piperazin-1-yl]-ethyl]-cyclohexyl}-3-ethyl-3-methyl-urea] |
|  |  | 293 to 296 |  | O=C(N[C@H]1CC[C@H](CCN2CCN(c3cccc(Cl)c3Cl)CC2)CC1)N1CCNCC1 [Compound 14, trans-N-{4-[2-[4-(2,3-dichlorophenyl)-piperazin-1-yl]-ethyl]-cyclohexyl}-piperazine-1-carboxamide] |
|  |  | 166 to 168 |  | CN1CCN(C(=O)N[C@H]2CC[C@H](CCN3CCN(c4cccc(Cl)c4Cl)CC3)CC2)CC1 [Compound 15, trans-N-{4-[2-[4-(2,3-dichlorophenyl)-piperazin-1-yl]-ethyl]-cyclohexyl}-4-methyl-piperazine-1-carboxamide] |
| > 200 | < 1 | 201 to 203 |  | O=C(N[C@H]1CC[C@H](CCN2CCN(c3cccc(Cl)c3Cl)CC2)CC1)N1CCOCC1 [Compound 16, trans-N-{4-[2-[4-(2,3-dichlorophenyl)-piperazin-1-yl]-ethyl]-cyclohexyl}-morpholine-4-carboxamide] |
|  |  | 188 to 190 |  | O=C(N[C@H]1CC[C@H](CCN2CCN(c3cccc(Cl)c3Cl)CC2)CC1)N1CCCCC1 [Compound 17, trans-N-{4-[2-[4-(2,3-dichlorophenyl)-piperazin-1-yl]-ethyl]-cyclohexyl}-piperidine-1-carboxamide] |
|  |  | 178 to 180 |  | O=C(N[C@H]1CC[C@H](CCN2CCN(c3cccc(Cl)c3Cl)CC2)CC1)N1CCC(O)CC1 [Compound 18, trans-N-{4-[2-[4-(2,3-dichlorophenyl)-piperazin-1-yl]-ethyl]-cyclohexyl}-4-hydroxy-piperidine-1-carboxamide] |
| > 200 | < 1 |  | 10 to 50 | C=CCNC(=O)N[C@H]1CC[C@H](CCN2CCN(c3cccc(Cl)c3Cl)CC2)CC1 [Compound 21, trans-1-Allyl-3-(4-{2-[4-(2,3-dichloro-phenyl)-piperazin-1-yl]-ethyl}-cyclohexyl)-urea] |
| > 200 | < 1 |  | 10 to 50 | CCCCNC(=O)N[C@H]1CC[C@H](CCN2CCN(c3cccc(Cl)c3Cl)CC2)CC1 [Compound 24, trans-1-Butyl-3-(4-{2-[4-(2,3-dichloro-phenyl)-piperazin-1-yl]-ethyl}-cyclohexyl)-urea] |
| > 200 | < 1 |  |  | N#Cc1cccc(NC(=O)N[C@H]2CC[C@H](CCN3CCN(c4cccc(Cl)c4Cl)CC3)CC2)c1 [Compound 31, trans-1-(3-Cyano-phenyl)-3-(4-{2-[4-(2,3-dichloro-phenyl)-piperazin-1-yl]-ethyl}-cyclohexyl)-urea] |
| > 200 | < 1 |  | 10 to 50 | COc1cc(NC(=O)N[C@H]2CC[C@H](CCN3CCN(c4cccc(Cl)c4Cl)CC3)CC2)cc(OC)c1OC [Compound 32, trans-1-(4-{2-[4-(2,3-Dichloro-phenyl)-piperazin-1-yl]-ethyl}cyclohexyl)-3-(3,4,5-trimethoxy-phenyl)-urea] |
| > 200 | < 1 |  |  | O=C(NC1CCCCC1)N[C@H]1CC[C@H](CCN2CCN(c3cccc(Cl)c3Cl)CC2)CC1 [Compound 33, trans-1-Cyclohexyl-3-(4-{2-[4-(2,3-dichloro-phenyl)-piperazin-1-yl]-ethyl}-cyclohexyl)-urea] |
| > 200 | 1 to 10 |  | 10 to 50 | CC(C)(C)NC(=S)N[C@H]1CC[C@H](CCN2CCN(c3cccc(Cl)c3Cl)CC2)CC1 [Compound 38, trans-1-tert-Butyl-3-(4-{2-[4-(2,3-dichloro-phenyl)-piperazin-1-yl]-ethyl}-cyclohexyl)-thiourea] |
| > 200 | < 1 |  | 10 to 50 | CCCNC(=S)N[C@H]1CC[C@H](CCN2CCN(c3cccc(Cl)c3Cl)CC2)CC1 [Compound 42, trans-1-(4-{2-[4-(2,3-Dichloro-phenyl)-piperazin-1-yl]-ethyl}-cyclohexyl)-3-propyl-thiourea] |
| > 200 | < 1 |  | 10 to 50 | CCOC(=O)CNC(=S)N[C@H]1CC[C@H](CCN2CCN(c3cccc(Cl)c3Cl)CC2)CC1 [Compound 44, trans-[3-(4-{2-[4-(2,3-Dichloro-phenyl)-piperazin-1-yl]-ethyl}-cyclohexyl)-thioureido]-acetic acid ethyl ester] |
| > 200 | < 1 |  | 10 to 50 | CCNC(=S)N[C@H]1CC[C@H](CCN2CCN(c3cccc(Cl)c3Cl)CC2)CC1 [Compound 45, trans-1-(4-{2-[4-(2,3-Dichloro-phenyl)-piperazin-1-yl]-ethyl}-cyclohexyl)-3-ethyl-thiourea] |
| > 200 | < 1 |  |  | CC(C)(C)NC(=O)N[C@H]1CC[C@H](CCN2CCN(c3cccc(Cl)c3Cl)CC2)CC1 [Compound 47, trans-1-tert-Butyl-3-(4-{2-[4-(2,3-dichloro-phenyl)-piperazin-1-yl]-ethyl}-cyclohexyl)-urea] |
| > 200 | < 1 |  | 10 to 50 | O=C(Nc1ccccc1)N[C@H]1CC[C@H](CCN2CCN(c3cccc(Cl)c3Cl)CC2)CC1 [Compound 48, trans-1-(4-{2-[4-(2,3-Dichloro-phenyl)-piperazin-1-yl]-ethyl}-cyclohexyl)-3-phenyl-urea] |
| > 200 | < 1 |  | 50 to 200 | O=C(NCc1ccccc1)N[C@H]1CC[C@H](CCN2CCN(c3cccc(Cl)c3Cl)CC2)CC1 [Compound 49, trans-1-Benzyl-3-(4-{2-[4-(2,3-dichloro-phenyl)-piperazin-1-yl]-ethyl}-cyclohexyl)-urea] |
| > 200 | < 1 |  | 50 to 200 | COc1ccc(NC(=O)N[C@H]2CC[C@H](CCN3CCN(c4cccc(Cl)c4Cl)CC3)CC2)cc1 [Compound 50, trans-1-(4-{2-[4-(2,3-Dichloro-phenyl)-piperazin-1-yl]-ethyl}-cyclohexyl)-3-(4-methoxy-phenyl)-urea] |
| > 200 | < 1 |  | 10 to 50 | CCOC(=O)CNC(=O)N[C@H]1CC[C@H](CCN2CCN(c3cccc(Cl)c3Cl)CC2)CC1 [Compound 51, trans-[3-(4-{2-[4-(2,3-Dichloro-phenyl)-piperazin-1-yl]-ethyl}-cyclohexyl)-ureido]-acetic acid ethyl ester] |
